Active and inactive are the calls of the source. The rule behind the calls is not given here.
What was measured:
Huh-7 [1] = experiment: Induction of apoptosis in human HuH7 negative EpCAM/CD133 cells assessed as change in cell number at 0.1 to 10 uM measured after 48 hrs by 2D microscopic analysis; assay type: functional, cell-based
Huh-7 [2] = experiment: Induction of apoptosis in human HuH7 negative EpCAM/CD133 cells assessed as increase in early apoptotic cells measured after 48 hrs by Annexin V-FITC/propidium iodide staining based flow cytometry analysis; assay type: functional, cell-based

Question: With Cc1ccc([C@H]2CC=CC(=O)O2)c2ccccc12 as the molecule, how does the Activity (Huh-7 [1]) read?
Answer: Its Activity is “Active”.

Question: What about the Activity (Huh-7 [2]) of the same molecule?
Answer: The Activity was “Dose-dependent effect”.

From ChEMBL document CHEMBL4359853, “Antiproliferative activity of (R)-4'-methylklavuzon on hepatocellular carcinoma cells and EpCAM+/CD133+ cancer stem cells via SIRT1 and Exportin-1 (CRM1) inhibition” (Eur J Med Chem, 2019)
